# In patent publication US8609892B2 (Eli Lilly and Company, priority 2004, dated 2013):
# pKi: −log10 of the molar value.
# Target: cloned human glucagon receptor (Homo sapiens (Human), UniProt P47871)
# Experiment: Glucagon Receptor (hGlucR) Binding Assay
# Details: I-125 glucagon competition, SPA, 293HEK membranes, Cheng-Prusoff
# Protocol: This plasmid DNA was transfected into 293 HEK cells and selected with 200 ug/mL Hygromycin.
# Crude plasma membranes are prepared using cells from suspension culture. The cells are lysed on ice in hypotonic buffer containing 25 mM Tris HCL, pH 7.5, 1 mM MgCl2, DNAse1, 20 u/mL, and Roche Complete Inhibitors-without EDTA. The cell suspension is homogenized with a glass dounce homogenizer using a Teflon pestle for 25 strokes. The homogenate is centrifuged at 4 degrees C. at 1800×g for 15 mins. The supernate is collected and the pellet is resuspended in hypotonic buffer and rehomogenized. The mixture is centrifuged at 1800×g for 15 mins. The second supernate is combined with the first supernate. The combined supernates are recentrifuged at 1800×g for 15 mins to clarify. The clarified supernate is transferred to high speed tubes and centrifuged at 25000×g for 30 minutes at 4 degrees C. The membrane pellet is resuspended in homogenization buffer and stored as frozen aliquots at −80 degree C. freezer until needed.
# The specific activity is 2200 Ci/mmol.
# The binding buffer contains 25 mM Hepes, pH 7.4, 2.5 mM CaCl2, 1 mM MgCl2, 0.1% fatty acid free BSA, (ICN), 0.003% tween-20, and Roche Complete Inhibitors without EDTA. […] Test compounds are dissolved in DMSO and serially diluted in DMSO. […] Plates are read with a MicroBeta after 14 hours of settling time at room temp. […]
# Chain of cloned human glucagon receptor (P47871 26-477): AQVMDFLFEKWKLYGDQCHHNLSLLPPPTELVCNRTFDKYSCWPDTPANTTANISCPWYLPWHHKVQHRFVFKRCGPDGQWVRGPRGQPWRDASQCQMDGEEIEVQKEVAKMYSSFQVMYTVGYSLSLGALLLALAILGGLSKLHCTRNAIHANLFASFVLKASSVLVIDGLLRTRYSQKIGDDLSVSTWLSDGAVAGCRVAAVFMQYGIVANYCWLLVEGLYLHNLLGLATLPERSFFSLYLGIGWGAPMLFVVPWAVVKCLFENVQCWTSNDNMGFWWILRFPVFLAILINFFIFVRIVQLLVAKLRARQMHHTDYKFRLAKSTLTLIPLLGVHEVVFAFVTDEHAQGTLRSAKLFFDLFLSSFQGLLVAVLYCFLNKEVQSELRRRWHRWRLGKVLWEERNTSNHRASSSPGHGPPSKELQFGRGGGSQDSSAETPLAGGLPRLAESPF
row,pKi,SMILES
1,6.58,Cc1ccc(-c2ccc(SC(CC(C)C)c3ccc(C(=O)NCCC(=O)O)cc3)cc2)cc1C (centres unmarked)
2,6.60,CCCC(Oc1ccc(-c2ccc(CC(C)C)cc2)nc1)c1ccc(C(=O)NCCC(=O)O)cc1 (centres unmarked)
